How the values were obtained:
[1] = system: aortic rings of 13 day-old chicken embryos; assay: Chick embryo aortic arch assay; format: cell-based; conditions: for sprouting of new vessels versus control: 1 nM peptide
Protocol: The chick embryo aortic arch assay is an ex vivo angiogenesis assay that was performed as previously described (Isaacs, et al., J. Biol. Chem., 16; 277(33):29936-44, 2002; Auerbach et al., Clin. Chem. 49, 32-40, 2003). Briefly, aortic rings of approximately 0.8 mm in length were prepared from the five aortic arches of 13 day-old chicken embryos (Truslow Farms) and the soft connective tissue of the adventitia layer was carefully removed with tweezers. Each aortic ring was placed in the center of a well in a 48-well plate and covered with 10 μl matrigel (BD Biosciences). After the matrigel solidified, 300 μl of growth factor-free human endothelial-SFM basal growth medium (Invitrogen) containing the proper concentration of the test substances were added to each well. The plates were kept in a humid incubator at 37° C. in 5% CO2 for 24-36 hours. Microvessels sprouting from each aortic ring were photographed in an inverted microscope and the area covered by the newly formed capillaries was estimated by image analysis.

[2] = system: nude mice; assay: Directed in vivo Angiogenesis Assay (DIVAA), Example 1; conditions: for FITC-dextran fluorescence of implants (angiogenesis): mean ± standard deviation of five implants
Protocol: Silicone tubes (0.15 mm outside diameter, New Age Industries, Southampton, Pa.) are cut to 1 cm in length, and one end of each tube is closed with liquid silicone and dried for 24 hours, then autoclaved. A dilution of test substances is prepared in matrigel in sterile cold Eppendorf tubes. Tubes are filled with a Hamilton syringe. Nude mice are anesthetized, and a pocket is made in the dorsal skin of each animal. The tubes are then implanted with the open end first, and the wounds are then sealed.
After nine to eleven days, the tail veins are injected with FITC-dextran to visualize the blood vessels, and the dye is allowed to distribute throughout the vasculature for about 20 minutes. Mice are then euthanized with CO2 and the skin pockets are removed.
Skin is then dissected, keeping the vessels near the mouth of the tube. The matrigel is then displaced from the tube, incubated at 37° C. in the presence of dispase, then vortexed, centrifuged, and matrigel aliquots are transferred into 96-well plates for fluorescent emission. Fluorescence is read in a fluorimeter.
This example provides a description of use of the Directed in vivo Angiogenesis Assay (DIVAA; see Martinez et al., J. Natl. Cancer Inst. 2002; 94:1226-1237) to measure the angiogenic potential of PAMP in comparison to known angiogenesis factors.
Implants were prepared as follows: Silicone tubes (0.15 mm outside diameter, New Age Industries, Southampton, Pa.) were cut to 1 cm in length. One end of each tube was closed with liquid silicone and dried for 24 hours to allow fumes to diffuse out. Tubes were then autoclaved.
A dilution of test substances was prepared in matrigel in sterile cold Eppendorf tubes. A stock of 25× was prepared to avoid diluting the matrigel too much. Tubes were filled with a Hamilton syringe. All the material was kept sterile and cold. Each tube required 18-20 μl. The matrigel was allowed to solidify at 37° C. for at least 30 minutes.
Nude mice were anesthetized with Ketamine and Xylazine (1:4 ratio), 50 μl per mouse, […]. A pocket was made in the dorsal skin of each animal with scissors. The tubes were implanted with the open end first. The wounds were then sealed with surgical clips. Mice were kept warm until they recovered consciousness. Mice were then maintained for nine to eleven days.
Mice were placed under a heating lamp to dilate their tail veins. Tail veins were injected with 25 mg/ml FITC-dextran (Sigma), 100 μl/mouse. After about 20 minutes, the dye had been distributed. Mice were then euthanized with CO2 and the skin pockets were removed and kept in a PBS-wet cloth.
Skin was then dissected out, keeping the vessels near the mouth of the tube. The tube was placed in an Eppendorf tube containing 300 μdispase (Collaborative Biomedical Products). Then the matrigel was displaced from the tube; these were frozen until they were needed later.
Matrigels were thawed and incubated at 37° C. for one hour, then vortexed, centrifuged, and 100 μl was transferred into a 96-well plate for fluorescent emission (black sides). Excitation for FITC was 485 nm. Emission was 535 nm. Fluorescence was read in a fluorometer.

[3] = system: human microvascular endothelial cells; assay: Proliferation assay (MTT); format: cell-based; conditions: three days; for endothelial cell proliferation over the control: 10^−8 M, serum-free medium, p<0.001
Protocol: The same microvascular endothelial cells were seeded in 96-well plates at a density of 2.0×10^5 cells per well in serum-free medium containing different concentrations of the test peptides. After three days in culture, the number of viable cells per well was estimated by the MTT assay as reported (Iwai et al., Lung Cancer 23, 209-222, 1999). Results are represented as percentage growth over the untreated control.

[4] = system: athymic nude mice; assay: DIVAA with angioreactors, Example 2 (peptides in matrigel); format: in vivo; conditions: for concentration range at which angiogenesis begins: equimolar comparison, FIG. 4G
Protocol: Analysis and quantitation of angiogenesis was done using DIVAA as previously described (Martinez et al., J. Natl. Cancer Inst., 21; 94(16):1226-37, 2002; Guedez et al., Am. J. Pathol. 162, 1431-1439, 2003). Briefly, 10 mm long surgical-grade silicone tubes with only one end open (angioreactors) were filled with 20 μl of matrigel alone or mixed with AM, bFGF, VEGF, PAMP, and/or PAMP(12-20) at the indicated concentrations. Human lung cancer cell lines (see below) were also premixed with matrigel alone or in combination with PAMP(12-20) at 10,000 cells per angioreactor. After the matrigel solidified, the angioreactors were implanted into the dorsal flanks of anesthetized athymic nude mice (NCI colony). After eleven days, the mice were injected intravenously with 25 mg/ml FITC-dextran (100 μl/mouse, Sigma) 20 minutes before removing the angioreactors. Photographs of the implants were taken for visual examination of angiogenic response. Quantitation of neovascularization in the angioreactors was determined as the amount of fluorescence trapped in the implants and was measured in a HP Spectrophotometer (Perkin Elmer).
To further characterize this observation, an […] assay was employed that allows for more precise quantitation of angiogenic properties: the directed […] angiogenesis assay or DIVAA (Martinez et al., J. Natl. Cancer Inst., 21; 94(16): 1226-37, 2002; Guédez et al., Am. J. Pathol. 162, 1431-1439, 2003). The assay involves implanting small silicone capsules carrying the test substances under the skin of nude mice. After eleven days, the mice are injected with a specific amount of FITC-dextran, and the volume of blood circulating through the implant is quantified by measuring the fluorescence in the capsule. In addition, the new blood vessels growing into the silicone tube can be seen directly by transparency (FIG. 4A-F). […] The extent of the angiogenic response can be seen clearly when this response is compared with the negative control (FIG. 4A). The angiogenic response elicited by PAMP was dose-dependent (FIG. 4C-G). When compared to AM and VEGF responses at equimolar concentrations, a clear difference was observed.

Substance	sprouting of new vessels versus control [1]	concentrations inducing increase of sprouting blood vessels over untreated controls ([1]; chick embryo aortic rings in matrigel, 24-36 hours) [nM]	FITC-dextran fluorescence of implants (angiogenesis) ([2]; 10 pM peptide in matrigel)	FITC-dextran fluorescence of implants (angiogenesis) ([2]; 1 nM peptide in matrigel)	FITC-dextran fluorescence of implants (angiogenesis) ([2]; 100 nM peptide in matrigel)	FITC-dextran fluorescence of implants (angiogenesis) ([2]; 1 fM peptide in matrigel)	FITC-dextran fluorescence of implants (angiogenesis) ([2]; 100 fM peptide in matrigel)	angiogenic potency compared with VEGF or AM ([2]; Table 2, FIG. 1, FIG. 2)	angiogenic potency relative to VEGF and bFGF ([2]; on a molar basis, based on embryonic chick aortic ring assay and DIVAA)	endothelial cell growth ([3]; at the concentrations tested)	dose dependence of angiogenic response ([4]; FIG. 4C-G)	concentration range at which angiogenesis begins [4]	concentrations eliciting an angiogenic response ([4]; implants 11 days under the skin of nude mice) [femtomols/L]	endothelial cell proliferation over the control [3]
proadrenomedullin N-terminal 20 peptide (ARLDVASEFRKKWNKWALSR; listed as Homo sapiens) [PAMP, 20 amino-acid molecule originating from the post-translational processing of pre-proadrenomedullin; synthetic human, purchased from Bachem]	larger than the control	≥ 1	7611.2 ± 3747 arbitrary fluorescence units	10122.2 ± 3970 arbitrary fluorescence units	22283.6 ± 6746 arbitrary fluorescence units	6837.6 ± 1982 arbitrary fluorescence units	7044 ± 1727 arbitrary fluorescence units	significantly more potent	roughly one million	did not significantly modify cell growth	dose-dependent	femtomolar range	≥ 1	
vascular endothelial growth factor [VEGF]	do not promote any significant proliferation over the control		863.4 ± 437 arbitrary fluorescence units	8435 ± 3931 arbitrary fluorescence units	11206 ± 3735 arbitrary fluorescence units	1563.2 ± 1643 arbitrary fluorescence units	571 ± 785 arbitrary fluorescence units					nanomolar concentrations		significantly increase proliferation
Adrenomedullin [AM]	do not promote any significant proliferation over the control		1033.2 ± 343 arbitrary fluorescence units	9590 ± 3164 arbitrary fluorescence units	13490 ± 2731 arbitrary fluorescence units	496 ± 275 arbitrary fluorescence units	787 ± 130 arbitrary fluorescence units					nanomolar concentrations		significantly increase proliferation

From patent publication US7862815B2, “Methods for inhibiting angiogenesis with inhibitors of proadrenomedullin N-terminal 20 peptide (PAMP)” (The United States of America as represented by the …, priority 2002, dated 2011)
